Reference: paper PMC12378621, “Benzo-ring modification on Malaria Box hit MMV008138: effects on antimalarial potency and microsomal stability” (RSC Medicinal Chemistry, 2025)
Where “and” joins values, the source holds several entries; their conditions need not be identical. Equal values may be shown once. Read-outs that look alike come from different tables or passages of the source.

How the values were obtained:
[1] = tested on: P. falciparum (Dd2 strain); assay: ABS P. falciparum growth inhibition, SYBR Green I assay, 72 h endpoint; type: cell-based, Plasmodium falciparum; conditions: Plasmodium falciparum, DD2; control in growth inhibition / IPP rescue assays; read-out: EC50 of MMV008138 used as control
Procedure: Parasites were maintained in O-positive human erythrocytes (Grifols, Memphis, TN, USA) at 5% hematocrit in RPMI 1640 medium supplemented with 5 g L^−1 Albumax I (Gibco Life Technologies), 2 g L^−1 glucose (Sigma-Aldrich), 2.3 g L^−1 sodium bicarbonate (Sigma-Aldrich), 370 μM hypoxanthine (Sigma-Aldrich), 25 mM HEPES, and 20 mg L^−1 gentamicin (Gibco Life Technologies). The parasites were kept at 37 °C under reduced-oxygen conditions (5% CO2, 5% O2, and 90% N2).
[…]. MMV008138 (1) was used as control. The percentage of growth was normalized to that of untreated control parasites in the presence of 0.1% DMSO. Background determinations were made using uninfected erythrocytes. Two or more independent experiments in duplicate were performed. The EC50 values were calculated with GraphPad Prism 9 (GraphPad Software Ltd.) using nonlinear regression curve fitting with variable slope (four parameters) and represent the average and their standard error of the mean (S.E.M.). To assess whether 20a–e specifically targeted the apicoplast, the recovery of growth in the presence of inhibitor and isopentenyl diphosphate (IPP) was performed as described previously.[8] Briefly, parasites were grown in the presence or absence of 200 μM IPP along with a serial dilution (10 μM to 0.01 μM) or single concentration (10 or 20 μM) of drug. […] All conditions were set in 96-well half area plates using highly synchronous ring-stage parasite cultures (100 μL per well at 1% hematocrit and 1% parasitemia) and incubated for 72 h under normal culture conditions. Parasite growth was measured by the SYBR green I assay.

P. falciparum IspD = tested on: P. falciparum IspD; set-up: method as in PMID 26783558; conditions: cited from earlier work
in vitro = conditions: male, mouse, microsomes
Procedure: Metabolic stability of 1 was studied in pooled male mouse liver microsomes (final concentration 0.5 mg/mL, 5 mM MgCl 2, 100 mM phosphate buffer). The final concentration of test […]
The mixture was pre-warmed 37°C for 5 min before addition of 50 μL of 10 mM NADPH solution at the final concentration of 1 mM and carried out at 37°C. 50 μL of ultra-pure H2O was used instead of NADPH solution in the […]
negative control. […] Drug […]
concentrations were determined using triple quad LC-MS (Table S5).
(§1) (1 picture or pasted object on this page, not shown here)

[2] = tested on: P. falciparum (Dd2 strain); conditions: SYBR Green I, 72 h endpoint; previously reported; read-out: Dd2 strain P. falciparum growth inhibition EC50; cited from earlier work
in vivo = conditions: mouse
Procedure: 3. Pharmacokinetics of 1 in mice
Pharmacokinetic analysis of 1 in mice was performed by Pharmaron (Beijing, China). Three mice each (23 ± 1 g) were used for oral (40 mg/kg, gavage, conscious) and for IV (10 mg/kg, lateral tail vein with anesthesia) administration. The vehicle for both routes wa s 20% DMSO, 60% PEG400 and 20% SBE-β-CD (30% w/v) in water. Stock concentrations were 4 mg/mL (both oral and IV respectively), and mice were dosed at 10.0 and 2.5 mL/kg (oral and IV respectively).
Quantitation was performed by triple-quad LC-MS.

P. vivax IspD = tested on: P. vivax IspD; set-up: method as in PMID 26783558; conditions: cited from earlier work
[3] = tested on: Plasmodium berghei ANKA expressing luciferase (PbGFP-Luccon); assay: In vivo efficacy in P. berghei-infected mice (luminescence on Day 7)
Procedure: 2. In vivo efficacy studies of 1 (NYU) in P. berghei-infected mice (po and iv) Efficacy of 1 in P. berghei-infected mice was assessed at the Anti-Infectives Core Facility, Department of Microbiology, Grossman School of Medicine, New York University.
A. Oral Administration Protocol
Three groups of five female Swiss Webster mice weighing 25 to 30 g were used for vehicle […]
berghei ANKA expressing luciferase (PbGFP-Luccon) obtained from a donor infected mouse.10 […]
2 to 6 and imaged on day 7.
Figure S1. Dosing and imaging timeline of P. berghei-infected mice. […]
Day 7 as described in the text.
The vehicle for all groups was 0.5% (hydroxypropyl)methyl cellulose, 0.5% Tween-80.
For the surviving mice, o n day 7 after infection, mice were anesthetized by inhalation of isofluorane and injected via i.p. with 150 mg/kg of luciferase substrate dissolved in PBS (D-Luciferin Potassium Salt , Gold Biotechnology ).
Mice were imaged 5 to 10 min after inj ection of luciferin using an IVIS imager (Lumina II In Vivo Imaging System; Perkin -Elmer). The data acquisition and analysis were performed with LivingImage (Xenogen). Accumulated light intensity was measured in each mouse to determine the baseline infection levels before treatment .
as §1
B. IV Administration Protocol
One group of four female Swiss Webster mice weighing 25 to 30 g were used for vehicle control, and groups of five mice were used for 1 treatment (IV, 2 x 30 mg/kg/d) and the positive […]
On Day 0, mice were infected via intraperitoneal (i.p.) […]
from a donor infected mouse. 10 As shown below in Figure S2 (and legend), mice were treated […]
Figure S2. Dosing and imaging timeline of P. berghei-infected mice. Vehicle and 1 (30 mpk) treatments were administered IV twice -daily on Days 2-6. […]
administered i .p. once-daily. Mice were imaged on Day 7, as described in the text.
The vehicle for this study was 30%PEG, 40% Captisol (30%w/v solution).
Table S2. Luminescence Data after background subtraction for IV dosing of Vehicle, 1, and IP […]
Table S9. Concentration of 20c vs time in mice. […]
Figure S6. Dosing and imaging timeline of P. berghei-infected mice. […]

[4] = tested on: P. falciparum (Dd2 strain); set-up: method as in PMID 25754494; conditions: drug at 2.5 μM; previously reported; cited from earlier work
[5] = iv, 10 mg/kg, plasma concentration
[6] = po, 40 mg/kg, plasma concentration
[7] = Table S2, Days 2-6, imaged Day 7, Cmpd 1 30 mg/kg 2 x daily IV, CQ 20 mg/kg 1 x daily i.p.

SMILES: O=C(O)[C@@H]1Cc2c([nH]c3ccccc23)[C@@H](c2ccc(Cl)cc2Cl)N1 [Compound 1, reference compound]
- EC50 [1]: 170 ± 10 nM
- IC50 (P. falciparum IspD): 47 nM
- half-life at 1 µM (in vitro): ~0.167 h
- % remaining at 60 min (in vitro; 1 h, 1 µM): 103.9%
- EC50 [2]: 250 ± 70 nM
- AUC(0-inf) (in vivo; iv, 10 mg/kg): 38.4 ± 3.8 µM·h
- AUC(0-t) (in vivo; iv, 10 mg/kg): 36.1 ± 3.6 µM·h
- C0 (in vivo; iv, 10 mg/kg): 86 ± 6.6 µM
- Vd (in vivo; iv, 10 mg/kg): 3.5 ± 0.43 L/kg
- clearance (in vivo; iv, 10 mg/kg): 12.1 ± 1.3 mL/min/kg
- tlast (in vivo; iv, 10 mg/kg): 24 h
- concentration at 24 h (in vivo; iv, 10 mg/kg, Cmin): 0.164 ± 0.017 µM
- concentration at 0.083 h (in vivo; [5]): 58.6 ± 5.5 µM
- concentration at 0.25 h (in vivo; [5]): 27.1 ± 3.7 µM
- concentration at 0.5 h (in vivo; [5]): 14.8 ± 1.9 µM
- concentration at 1 h (in vivo; [5]): 4.8 ± 1.7 µM
- concentration at 2 h (in vivo; [5]): 1.3 ± 0.4 µM
- concentration at 4 h (in vivo; [5]): 0.66 ± 0.04 µM
- concentration at 8 h (in vivo; [5]): 0.51 ± 0.03 µM
- concentration at 24 h (in vivo; [5]): 0.16 ± 0.02 µM
- half-life (in vivo; iv, 10 mg/kg, t1/2): 9.9 ± 4 h
- AUC0-inf (in vivo; po, 40 mg/kg): 88 µM·h
- AUC(0-inf) (in vivo; po, 40 mg/kg): 88 ± 15 µM·h
- AUC(0-t) (in vivo; po, 40 mg/kg): 79 ± 8.9 µM·h
- Cmax (in vivo; po, 40 mg/kg): 46.1 ± 7.3 µM
- Tmax (in vivo; po, 40 mg/kg): 0.25 h
- tlast (in vivo; po, 40 mg/kg): 24 h
- bioavailability (in vivo; po, 40 mg/kg, % F): 57%
- bioavailability (in vivo; po, 40 mg/kg, %F): 57 ± 10%
- concentration at 24 h (in vivo; po, 40 mg/kg, Cmin): 0.65 ± 0.35 µM
- concentration at 0.25 h (in vivo; [6]): 46.1 ± 8 µM
- concentration at 0.5 h (in vivo; [6]): 28.2 ± 4.1 µM
- concentration at 1 h (in vivo; [6]): 12.7 ± 2.7 µM
- concentration at 2 h (in vivo; [6]): 5.4 ± 0.31 µM
- concentration at 4 h (in vivo; [6]): 3.2 ± 0.25 µM
- concentration at 8 h (in vivo; [6]): 2.4 ± 0.45 µM
- concentration at 24 h (in vivo; [6]): 0.64 ± 0.35 µM
- half-life (in vivo; po, 40 mg/kg, t 1/2): 8.5 h
- half-life (in vivo; po, 40 mg/kg, t1/2): 8.5 ± 0.24 h
- IC50 (P. vivax IspD): 310 nM
- reduction in parasitemia ([3]; P. berghei mouse model, IV dosing): no reduction in parasitemia
- reduction in parasitemia / efficacy ([3]; P. berghei mouse model, oral dosing (20c 5 × 40 mg per kg per day)): no reduction in parasitemia
- Live/Dead and luminescence, individual mice ([3]; Table S1, oral 1 x daily Days 2-6, imaged Day 7, Cmpd 1 45 mg/kg, CQ 20 mg/kg): Dead by Day 6 and Dead by Day 7 and 1.33E+06
- Luminescence after background subtraction AVG [3, 7]: 1.39E+06
- Luminescence after background subtraction, individual mice [3, 7]: 9.49E+05 and 1.50E+06 and 1.72E+06 and 2.00E+06 and 7.68E+05
- treated mice dead by Day 7 (of 5) ([3]; oral 45 mg/kg/d Days 2-6): 4
- % recovery (200 μM IPP) [4]: 100%@2.5 μM ^c
